Test results from the supplement of paper PMC10307832.

Assays:
Assay in all cases: relative viability (nuclei count vs DMSO), 5 days (fraction); higher = more cells survive
[1] = tested on: 201T
Summary of the method: (§1)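 Relative viability divides the nuclei count in treated wells by that in vehicle wells. Lung cancer cell lines were seeded in 1536-well plates, dosed by pin tool the next day, and fixed and stained after 5 days in one step with final 0.05% Triton X-100, 1% formaldehyde and 1 ug/ml Hoechst. Dosing was a single drug or a fixed anchor-drug dose plus five library-drug doses (not always all listed) in √10 steps, and values are medians of duplicate plates imaged at 4×.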

[2] = tested on: ABC-1
Summary of the method: as §1

[3] = tested on: BEN
Summary of the method: as §1

[4] = tested on: CAL-12T
Summary of the method: as §1

[5] = tested on: COR-L 105
Summary of the method: as §1

[6] = tested on: EKVX
Summary of the method: as §1

[7] = tested on: HARA
Summary of the method: as §1

[8] = tested on: HCC-366
Summary of the method: as §1

[9] = tested on: LK-2
Summary of the method: as §1

[10] = tested on: LOU-NH91
Summary of the method: as §1

[11] = tested on: NCI-H1437
Summary of the method: as §1

[12] = tested on: NCI-H1650
Summary of the method: as §1

[13] = tested on: NCI-H1666
Summary of the method: as §1

[14] = tested on: NCI-H2009
Summary of the method: as §1

[15] = tested on: NCI-H2170
Summary of the method: as §1

[16] = tested on: NCI-H3122
Summary of the method: as §1

[17] = tested on: NCI-H441
Summary of the method: as §1

[18] = tested on: NCI-H460
Summary of the method: as §1

[19] = tested on: NCI-H661
Summary of the method: as §1

[20] = tested on: NCI-H727
Summary of the method: as §1

[21] = tested on: PC-14
Summary of the method: as §1

[22] = tested on: SW 900
Summary of the method: as §1

With `O=c1cc(-c2cccc3c2Sc2ccccc2S3)oc(N2CCOCC2)c1` + O=C(c1cc(Cc2n[nH]c(=O)c3ccccc23)ccc1F)N1CCN(C(=O)C2CC2)CC1 [Olaparib] (partner 8 µM) the relative viability ([1]; first compound 0.08 µM) was 0.688, the relative viability ([1]; first compound 0.253 µM) was 0.909 and the relative viability ([1]; first compound 0.8 µM) was 0.861. It also gave a relative viability ([1]; first compound 2.53 µM) of 0.84, a relative viability ([1]; first compound 8 µM) of 0.703 and a relative viability ([2]; first compound 0.08 µM) of 0.821. It also gave a relative viability ([2]; first compound 0.253 µM) of 0.718, a relative viability ([2]; first compound 0.8 µM) of 0.735 and a relative viability ([2]; first compound 2.53 µM) of 0.777. It also gave a relative viability ([2]; first compound 8 µM) of 0.75, a relative viability ([3]; first compound 0.08 µM) of 0.998 and a relative viability ([3]; first compound 0.253 µM) of 1.15. The relative viability ([3]; first compound 0.8 µM) was 1.04, the relative viability ([3]; first compound 2.53 µM) was 0.956 and the relative viability ([3]; first compound 8 µM) was 1.07. The relative viability ([4]; first compound 0.08 µM) was 0.77, the relative viability ([4]; first compound 0.253 µM) was 0.738 and the relative viability ([4]; first compound 0.8 µM) was 0.759. The relative viability ([4]; first compound 2.53 µM) was 0.731, the relative viability ([4]; first compound 8 µM) was 0.402 and the relative viability ([5]; first compound 0.08 µM) was 0.546. For the same compound, the relative viability ([5]; first compound 0.253 µM) was 0.665, the relative viability ([5]; first compound 0.8 µM) was 0.468 and the relative viability ([5]; first compound 2.53 µM) was 0.682. For the same compound, the relative viability ([5]; first compound 8 µM) was 0.78, the relative viability ([6]; first compound 0.08 µM) was 0.829 and the relative viability ([6]; first compound 0.253 µM) was 0.852. The relative viability ([6]; first compound 0.8 µM) was 0.623, the relative viability ([6]; first compound 2.53 µM) was 0.803 and the relative viability ([6]; first compound 8 µM) was 1.05. The relative viability ([7]; first compound 0.08 µM) was 1.13, the relative viability ([7]; first compound 0.253 µM) was 0.711 and the relative viability ([7]; first compound 0.8 µM) was 0.774. For the same compound, the relative viability ([7]; first compound 2.53 µM) was 0.629, the relative viability ([7]; first compound 8 µM) was 0.777 and the relative viability ([8]; first compound 0.08 µM) was 0.421. It also gave a relative viability ([8]; first compound 0.253 µM) of 0.507, a relative viability ([8]; first compound 0.8 µM) of 0.406 and a relative viability ([8]; first compound 2.53 µM) of 0.483. The relative viability ([8]; first compound 8 µM) was 0.357, the relative viability ([9]; first compound 0.08 µM) was 0.833 and the relative viability ([9]; first compound 0.253 µM) was 0.793. It also gave a relative viability ([9]; first compound 0.8 µM) of 0.79, a relative viability ([9]; first compound 2.53 µM) of 0.62 and a relative viability ([9]; first compound 8 µM) of 0.749. For the same compound, the relative viability ([10]; first compound 0.08 µM) was 0.875, the relative viability ([10]; first compound 0.253 µM) was 0.945 and the relative viability ([10]; first compound 0.8 µM) was 0.866. The relative viability ([10]; first compound 2.53 µM) was 0.863, the relative viability ([10]; first compound 8 µM) was 0.917 and the relative viability ([11]; first compound 0.08 µM) was 0.618. The relative viability ([11]; first compound 0.253 µM) was 0.785, the relative viability ([11]; first compound 0.8 µM) was 0.684 and the relative viability ([11]; first compound 2.53 µM) was 0.615. For the same compound, the relative viability ([11]; first compound 8 µM) was 0.541, the relative viability ([12]; first compound 0.08 µM) was 0.702 and the relative viability ([12]; first compound 0.253 µM) was 0.8. The relative viability ([12]; first compound 0.8 µM) was 0.53, the relative viability ([12]; first compound 2.53 µM) was 0.782 and the relative viability ([12]; first compound 8 µM) was 0.734. It also gave a relative viability ([13]; first compound 0.08 µM) of 0.691, a relative viability ([13]; first compound 0.253 µM) of 0.733 and a relative viability ([13]; first compound 0.8 µM) of 0.681. The relative viability ([13]; first compound 2.53 µM) was 0.691, the relative viability ([13]; first compound 8 µM) was 0.671 and the relative viability ([14]; first compound 0.08 µM) was 0.746. It also gave a relative viability ([14]; first compound 0.253 µM) of 0.731, a relative viability ([14]; first compound 0.8 µM) of 0.798 and a relative viability ([14]; first compound 2.53 µM) of 0.662. The relative viability ([14]; first compound 8 µM) was 0.765, the relative viability ([15]; first compound 0.08 µM) was 0.585 and the relative viability ([15]; first compound 0.253 µM) was 0.699. For the same compound, the relative viability ([15]; first compound 0.8 µM) was 0.689, the relative viability ([15]; first compound 2.53 µM) was 0.641 and the relative viability ([15]; first compound 8 µM) was 0.617. It also gave a relative viability ([16]; first compound 0.08 µM) of 0.658, a relative viability ([16]; first compound 0.253 µM) of 0.745 and a relative viability ([16]; first compound 0.8 µM) of 0.584. The relative viability ([16]; first compound 2.53 µM) was 0.604, the relative viability ([16]; first compound 8 µM) was 0.63 and the relative viability ([17]; first compound 0.08 µM) was 0.603. It also gave a relative viability ([17]; first compound 0.253 µM) of 0.708, a relative viability ([17]; first compound 0.8 µM) of 0.518 and a relative viability ([17]; first compound 2.53 µM) of 0.461. The relative viability ([17]; first compound 8 µM) was 0.432, the relative viability ([18]; first compound 0.08 µM) was 0.513 and the relative viability ([18]; first compound 0.253 µM) was 0.343. For the same compound, the relative viability ([18]; first compound 0.8 µM) was 0.454, the relative viability ([18]; first compound 2.53 µM) was 0.451 and the relative viability ([18]; first compound 8 µM) was 0.542. For the same compound, the relative viability ([19]; first compound 0.08 µM) was 0.809, the relative viability ([19]; first compound 0.253 µM) was 0.808 and the relative viability ([19]; first compound 0.8 µM) was 0.76. It also gave a relative viability ([19]; first compound 2.53 µM) of 0.777, a relative viability ([19]; first compound 8 µM) of 0.712 and a relative viability ([20]; first compound 0.08 µM) of 0.64. It also gave a relative viability ([20]; first compound 0.253 µM) of 0.679, a relative viability ([20]; first compound 2.53 µM) of 0.615 and a relative viability ([20]; first compound 8 µM) of 0.68. It also gave a relative viability ([21]; first compound 0.08 µM) of 0.232, a relative viability ([21]; first compound 0.253 µM) of 0.214 and a relative viability ([21]; first compound 0.8 µM) of 0.237. The relative viability ([21]; first compound 2.53 µM) was 0.169, the relative viability ([21]; first compound 8 µM) was 0.165 and the relative viability ([22]; first compound 0.253 µM) was 0.999. The relative viability ([22]; first compound 0.8 µM) was 0.824, the relative viability ([22]; first compound 2.53 µM) was 0.702 and the relative viability ([22]; first compound 8 µM) was 0.773.
